# Measurements published in patent US12059502B2, “Composition and method for pretreating cancer” (Valcuria AB, priority 2016, dated 2024).
# Read-outs that look alike come from different tables or passages of the source.
# How the values were obtained:
# [1] = cited from earlier work
# [2] = according to Sigma-Aldrich; cited from earlier work
# [3] = Reported physicochemical properties of valproic acid; conditions: based on reported absorption and solubility values
# [4] = 70 kg person, Gugler and Unruh 1980
# [5] = systemic disposition PK of the reported 250 mg single dose study
compound,measurement,setting,value
"CCCC(CCC)C(=O)O [VPA, Valproic acid]",CL,[1]; [4],0.61 L/h
same,F,[1]; [4],100%
same,Vd,[1]; [4],10.6 L
same,"rate of absorption of released drug, first order (kabs)",[1]; based on data of Dutta and Reed 2007,61 h⁻¹
same,time up to which intestinal absorption was measured by deconvolution,"[1]; oral, Dutta and Zhang, 2004",up to 22 hr
same,bioavailability (F),"[1]; oral, immediate release, modified release and extended release formulations",~100%
same,CL,[1]; [5],0.52 L/h
same,V,[1]; [5],7.1 L
same,solubility in water,[2],50 mg/mL
same,biopharmaceutical classification system (BCS) class,[3],class I
